{"source": "patent US11083709B2", "about": "“Compounds, compositions, and methods of increasing CFTR activity” (Proteostasis Therapeutics, Inc., priority 2015, dated 2021)", "note": "Structures can show the parent of a compound that is named as a salt."}
{"target": "T1, ΔF508-CFTR (Homo sapiens, UniProt P13569, DEL508-508)", "T1 construct": "primary lung epithelial cells (hBEs) homozygous for the Cystic Fibrosis-causing ΔF508 mutation; endogenous in cells; host or cells: primary lung epithelial cells (hBEs) homozygous for ΔF508", "T1 sequence (P13569 with tags, fused parts or gaps DEL508-508)": "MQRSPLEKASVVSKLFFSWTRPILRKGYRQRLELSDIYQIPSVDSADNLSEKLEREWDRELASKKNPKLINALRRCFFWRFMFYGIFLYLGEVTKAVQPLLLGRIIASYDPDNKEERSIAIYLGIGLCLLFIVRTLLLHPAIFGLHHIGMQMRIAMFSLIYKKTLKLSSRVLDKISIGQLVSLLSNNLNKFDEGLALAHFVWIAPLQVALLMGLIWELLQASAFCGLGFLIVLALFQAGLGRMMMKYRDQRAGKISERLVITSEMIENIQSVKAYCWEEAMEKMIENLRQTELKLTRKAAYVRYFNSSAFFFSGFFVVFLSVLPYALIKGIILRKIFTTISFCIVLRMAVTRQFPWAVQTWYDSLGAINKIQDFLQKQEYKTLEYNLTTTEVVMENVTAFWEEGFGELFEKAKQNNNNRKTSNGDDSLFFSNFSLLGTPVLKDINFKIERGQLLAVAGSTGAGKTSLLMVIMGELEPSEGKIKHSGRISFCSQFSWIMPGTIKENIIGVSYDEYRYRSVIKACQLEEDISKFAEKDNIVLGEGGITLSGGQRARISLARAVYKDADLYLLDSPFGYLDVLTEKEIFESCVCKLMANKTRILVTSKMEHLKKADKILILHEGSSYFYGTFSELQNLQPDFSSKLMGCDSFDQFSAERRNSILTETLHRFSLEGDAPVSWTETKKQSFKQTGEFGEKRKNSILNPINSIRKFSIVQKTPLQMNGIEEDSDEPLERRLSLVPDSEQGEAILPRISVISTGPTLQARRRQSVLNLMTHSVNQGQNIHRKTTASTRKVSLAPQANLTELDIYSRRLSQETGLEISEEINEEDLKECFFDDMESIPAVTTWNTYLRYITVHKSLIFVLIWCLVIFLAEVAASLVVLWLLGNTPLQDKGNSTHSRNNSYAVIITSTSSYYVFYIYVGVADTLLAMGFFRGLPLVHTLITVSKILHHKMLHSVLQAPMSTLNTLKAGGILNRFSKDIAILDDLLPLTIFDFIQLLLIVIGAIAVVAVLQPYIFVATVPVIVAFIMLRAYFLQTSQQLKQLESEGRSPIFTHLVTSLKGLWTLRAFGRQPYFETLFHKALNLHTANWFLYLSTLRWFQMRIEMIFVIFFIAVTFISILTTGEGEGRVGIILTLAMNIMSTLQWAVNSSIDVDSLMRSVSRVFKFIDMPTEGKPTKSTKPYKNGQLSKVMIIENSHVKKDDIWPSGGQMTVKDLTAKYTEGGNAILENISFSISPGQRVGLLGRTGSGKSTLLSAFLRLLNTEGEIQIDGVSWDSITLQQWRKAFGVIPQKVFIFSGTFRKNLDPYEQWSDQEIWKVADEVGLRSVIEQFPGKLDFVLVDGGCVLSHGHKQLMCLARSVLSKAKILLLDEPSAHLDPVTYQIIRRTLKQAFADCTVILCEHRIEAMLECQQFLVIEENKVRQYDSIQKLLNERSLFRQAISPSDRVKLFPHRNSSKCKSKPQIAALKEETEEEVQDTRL", "assay": "hBE equivalent current (Ieq) assay, primary lung epithelial cells homozygous for ΔF508", "assay_type": "cell-based", "settings": "compound alone run at 10 uM, relative to VX-809 at 1 uM; 24 h treatment", "procedure": "(§1) Primary lung epithelial cells homozygous for the Cystic Fibrosis-causing ΔF508 mutation were differentiated for a minimum of 4 weeks in an air-liquid interface on Costar 24 well HTS filter plates prior to the equivalent current (Ieq) measurements. Cells were apically mucus-washed for 30 minutes 24h prior to treatment with compounds. The basolateral media was removed and replaced with media containing the compound of interest diluted to its final concentration from DMSO stocks. Treated cells were incubated at 37° C. and 5% CO2 for 24 hours. At the end of the treatment period, the media was changed to the Ieq experimental solution for 30 minutes before the experiment and plates are maintained in a CO2-free incubator during this period. The plates containing the cells were then placed in pre-warmed heating blocks at 36° C.±0.5 for 15 minutes before measurements are taken. The transepithelial voltage (VT) and conductance (GT) were measured using a custom 24 channel current clamp (TECC-24) with 24 well electrode manifold. The Ieq assay measurements were made following additions with standardized time periods: • 1. The baseline VT and GT values were measured for approximately 20 minutes. • 2. Benzamil was added to block ENaC for 15 minutes. • 3. Forskolin plus VX-770 (ivacaftor) were added to maximally activate ΔF508-CFTR for 27 minutes. • 4. Bumetanide was added to inhibit the NaK2Cl cotransporter and shut-off secretion of chloride.\n(§2) The activity data captured was the area under the curve (AUC) for the traces of the equivalent chloride current. The AUC was collected from the time of the forskolin/VX-770 addition until the inhibition by bumetanide addition. Correction in response to compound treatment was scored as the increase in the AUC for compound-treated samples over that of vehicle-treated samples.\n(§3) The results are shown below in Table 2. ++ indicates activity ≥25% run at 10 uM of VX-809 at 1 uM, + indicates activity 10 to <25% run at 10 uM of VX-809 at 1 uM, ** indicates activity ≥200% of VX-809 (1 uM) with compound at 10 uM and VX-809 at 1 uM; * indicates activity 100-200% of VX-809 (1 uM) with compound at 10 uM and VX-809 at 1 uM. ^## indicates activity ≥200% of VX-809 (3 uM) with compound at 10 uM and VX-809 at 3 uM; ^# indicates activity 100-200% of VX-809 (3 uM) with compound at 10 uM and VX-809 at 3 uM."}
{"smiles": "O=C(NC1CC1)c1cc(-c2ccccc2)co1", "note": "[Example 12, N-cyclopropyl-4-phenylfuran-2-carboxamide]", "leq: activity relative to VX-809 (AUC of equivalent chloride current)": "++ (++ indicates activity ≥25% run at 10 uM of VX-809 at 1 uM)"}
{"smiles": "COCCNC(=O)c1cc(-c2ccccc2)co1", "note": "[Example 8, N-(2-methoxyethyl)-4-phenylfuran-2-carboxamide]", "leq: activity relative to VX-809 (AUC of equivalent chloride current)": "+ (+ indicates activity 10 to <25% run at 10 uM of VX-809 at 1 uM)"}
{"smiles": "O=C(NCCN1CCOCC1)c1cc(-c2ccccc2)co1", "note": "[Example 10, N-(2-morpholinoethyl)-4-phenylfuran-2-carboxamide]", "leq: activity relative to VX-809 (AUC of equivalent chloride current)": "+ (+ indicates activity 10 to <25% run at 10 uM of VX-809 at 1 uM)"}
{"smiles": "Cn1nccc1CCCNC(=O)c1cc(-c2ccccc2)no1", "note": "[Example 7, N-(3-(1-methyl-1H-pyrazol-5-yl)propyl)-3-phenylisoxazole-5-carboxamide]", "leq: activity relative to VX-809 (AUC of equivalent chloride current)": "++ (++ indicates activity ≥25% run at 10 uM of VX-809 at 1 uM)"}
{"smiles": "O=C(NCCCn1ccnc1)c1cc(-c2ccccc2)no1", "note": "[Example 4, N-(3-(1H-imidazol-1-yl)propyl)-3-phenylisoxazole-5-carboxamide]", "leq: activity relative to VX-809 (AUC of equivalent chloride current)": "+ (+ indicates activity 10 to <25% run at 10 uM of VX-809 at 1 uM)"}
{"target": "T1, ΔF508-CFTR", "assay": "hBE equivalent current (Ieq) assay, primary lung epithelial cells homozygous for ΔF508", "assay_type": "cell-based", "settings": "compound at 10 uM and VX-809 at 1 uM, relative to VX-809 (1 uM); 24 h treatment", "procedure": "as §1, §2, §3"}
{"smiles": "C[C@@H](O)c1nnc(C[C@H]2C[C@H](NC(=O)c3cc(-c4cccs4)no3)C2)o1", "note": "[Example 46, N-[(1r,3r)-3-([5-[(1R)-1-Hydroxyethyl]-1,3,4-oxadiazol-2-yl]methyl)cyclobutyl]-3-(thiophen-2-yl)-1,2-oxazole-5-carboxamide]", "leq: activity of compound with VX-809, % of VX-809 (AUC of equivalent chloride current)": "* (* indicates activity 100-200% of VX-809 (1 uM) with compound at 10 uM and VX-809 at 1 uM)"}
{"smiles": "C[C@H](O)c1cn(C[C@H]2C[C@@H](NC(=O)c3cc(-c4ccccc4)no3)C2)nn1", "note": "[Example 58, 3-Phenyl-N-[(1s,3s)-3-([4-[(1S)-1-hydroxyethyl]-1H-1,2,3-triazol-1-yl]methyl)cyclobutyl]-1,2-oxazole-5-carboxamide]", "leq: activity of compound with VX-809, % of VX-809 (AUC of equivalent chloride current)": "* (* indicates activity 100-200% of VX-809 (1 uM) with compound at 10 uM and VX-809 at 1 uM)"}
{"smiles": "O=C(NC1CC1)c1cc(-c2ccccc2)co1", "note": "[Example 12, N-cyclopropyl-4-phenylfuran-2-carboxamide]", "leq: activity of compound with VX-809, % of VX-809 (AUC of equivalent chloride current)": "* (* indicates activity 100-200% of VX-809 (1 uM) with compound at 10 uM and VX-809 at 1 uM)"}
{"smiles": "C[C@@H](O)c1nnc(CC2CC(NC(=O)c3cc(-c4ccccc4)no3)C2)s1", "note": "(stereo partly drawn) [Example 42, 3-Phenyl-N-[(1r,3r)-3-([5-[(1R)-1-hydroxyethyl]-1,3,4-thiadiazol-2-yl]methyl)cyclobutyl]-1,2-oxazole-5-carboxamide]", "leq: activity of compound with VX-809, % of VX-809 (AUC of equivalent chloride current)": "* (* indicates activity 100-200% of VX-809 (1 uM) with compound at 10 uM and VX-809 at 1 uM)"}
{"smiles": "CN1CC(c2nnc([C@H]3C[C@H](NC(=O)c4cc(-c5ccccc5)no4)C3)o2)C1", "note": "[Example 21, N-(trans-3-(5-(1-methylazetidin-3-yl)-1,3,4-oxadiazol-2-yl)cyclobutyl)-3-phenylisoxazole-5-carboxamide trifluoroacetate]", "leq: activity of compound with VX-809, % of VX-809 (AUC of equivalent chloride current)": "* (* indicates activity 100-200% of VX-809 (1 uM) with compound at 10 uM and VX-809 at 1 uM)"}
{"smiles": "CO[C@H](C)c1nnc([C@H]2C[C@H](NC(=O)c3cc(-c4ccccc4)no3)C2)o1", "note": "[Example 14, N-(trans-3-(5-((R)-1-methoxyethyl)-1,3,4-oxadiazol-2-yl)cyclobutyl)-3-phenylisoxazole-5-carboxamide]", "leq: activity of compound with VX-809, % of VX-809 (AUC of equivalent chloride current)": "* (* indicates activity 100-200% of VX-809 (1 uM) with compound at 10 uM and VX-809 at 1 uM)"}
{"smiles": "CN1CCC(N2CC(c3nnc(C4CC(NC(=O)c5cc(-c6ccccc6)no5)C4)o3)C2)CC1", "note": "(stereo not drawn) [Example 24, N-cis-(3-(5-(1-(1-methylpiperidin-4-yl)azetidin-3-yl)-1,3,4-oxadiazol-2-yl)cyclobutyl)-3-phenylisoxazole-5-carboxamide]", "leq: activity of compound with VX-809, % of VX-809 (AUC of equivalent chloride current)": "* (* indicates activity 100-200% of VX-809 (1 uM) with compound at 10 uM and VX-809 at 1 uM)"}
{"smiles": "O=C(N[C@H]1C[C@H](c2nnc(C3CN(CC4CCC4)C3)o2)C1)c1cc(-c2ccccc2)no1", "note": "[Example 27, N-(trans-3-(5-(1-(cyclobutylmethyl)azetidin-3-yl)-1,3,4-oxadiazol-2-yl)cyclobutyl)-3-phenylisoxazole-5-carboxamide]", "leq: activity of compound with VX-809, % of VX-809 (AUC of equivalent chloride current)": "* (* indicates activity 100-200% of VX-809 (1 uM) with compound at 10 uM and VX-809 at 1 uM)"}
{"smiles": "C[C@@H](O)c1nnc(CC2CC(NC(=O)c3cc(-c4ccc(F)cc4)no3)C2)o1", "note": "(stereo partly drawn) [Example 40, 3-(4-Fluorophenyl)-N-[(1r,3r)-3-([5-[(1R)-1-hydroxyethyl]-1,3,4-oxadiazol-2-yl]methyl)cyclobutyl]-1,2-oxazole-5-carboxamide]", "leq: activity of compound with VX-809, % of VX-809 (AUC of equivalent chloride current)": "** (** indicates activity ≥200% of VX-809 (1 uM) with compound at 10 uM and VX-809 at 1 uM)"}
{"smiles": "CC(OCC(F)(F)F)c1nnc(C2CC(NC(=O)c3cc(-c4ccccc4)no3)C2)o1", "note": "(single isomer, unassigned) [Example 15]", "leq: activity of compound with VX-809, % of VX-809 (AUC of equivalent chloride current)": "* (* indicates activity 100-200% of VX-809 (1 uM) with compound at 10 uM and VX-809 at 1 uM)"}
{"smiles": "C[C@H](O)c1cnnn1C[C@H]1C[C@@H](NC(=O)c2cc(-c3ccccc3)no2)C1", "note": "[Example 57, 3-Phenyl-N-[(1s,3s)-3-([5-[(1S)-1-hydroxyethyl]-1H-1,2,3-triazol-1-yl]methyl)cyclobutyl]-1,2-oxazole-5-carboxamide]", "leq: activity of compound with VX-809, % of VX-809 (AUC of equivalent chloride current)": "** (** indicates activity ≥200% of VX-809 (1 uM) with compound at 10 uM and VX-809 at 1 uM)"}
{"smiles": "C[C@@H](O)c1nnc(CC2CC(NC(=O)c3cc(-c4ccc(F)cc4)no3)C2)s1", "note": "(stereo partly drawn) [Example 43, 3-(4-Fluorophenyl)-N-[(1s,3s)-3-([5-[(1R)-1-hydroxyethyl]-1,3,4-thiadiazol-2-yl]methyl)cyclobutyl]-1,2-oxazole-5-carboxamide]", "leq: activity of compound with VX-809, % of VX-809 (AUC of equivalent chloride current)": "** (** indicates activity ≥200% of VX-809 (1 uM) with compound at 10 uM and VX-809 at 1 uM)"}
{"smiles": "O=C(N[C@H]1C[C@H](c2nnc(C3CS(=O)(=O)C3)o2)C1)c1cc(-c2ccccc2)no1", "note": "[Example 23, N-(trans-3-(5-(1,1-dioxidothietan-3-yl)-1,3,4-oxadiazol-2-yl)cyclobutyl)-3-phenylisoxazole-5-carboxamide]", "leq: activity of compound with VX-809, % of VX-809 (AUC of equivalent chloride current)": "* (* indicates activity 100-200% of VX-809 (1 uM) with compound at 10 uM and VX-809 at 1 uM)"}
{"smiles": "C[C@@H](O)c1nnc(CC2CC(NC(=O)c3cc(-c4ccc(F)cc4)no3)C2)s1", "note": "(stereo partly drawn) [Example 44, 3-(4-Fluorophenyl)-N-[(1r,3r)-3-([5-[(1R)-1-hydroxyethyl]-1,3,4-thiadiazol-2-yl]methyl)cyclobutyl]-1,2-oxazole-5-carboxamide]", "leq: activity of compound with VX-809, % of VX-809 (AUC of equivalent chloride current)": "** (** indicates activity ≥200% of VX-809 (1 uM) with compound at 10 uM and VX-809 at 1 uM)"}
{"smiles": "Cn1nccc1CCCNC(=O)c1cc(-c2ccccc2)no1", "note": "[Example 7, N-(3-(1-methyl-1H-pyrazol-5-yl)propyl)-3-phenylisoxazole-5-carboxamide]", "leq: activity of compound with VX-809, % of VX-809 (AUC of equivalent chloride current)": "* (* indicates activity 100-200% of VX-809 (1 uM) with compound at 10 uM and VX-809 at 1 uM)"}
{"smiles": "CC(OC1CCC1)c1nnc([C@H]2C[C@H](NC(=O)c3cc(-c4ccccc4)no3)C2)o1", "note": "(relative stereo) [Example 17, N-(trans-3-(5-(1-cyclobutoxyethyl)-1,3,4-oxadiazol-2-yl)cyclobutyl)-3-phenylisoxazole-5-carboxamide]", "leq: activity of compound with VX-809, % of VX-809 (AUC of equivalent chloride current)": "* (* indicates activity 100-200% of VX-809 (1 uM) with compound at 10 uM and VX-809 at 1 uM)"}
{"smiles": "C[C@@H](OCC1CN(C)C1)c1nnc([C@H]2C[C@H](NC(=O)c3cc(-c4ccccc4)no3)C2)o1", "note": "[Example 20, N-(trans-3-(5-((R)-1-((1-methylazetidin-3-yl)methoxy)ethyl)-1,3,4-oxadiazol-2-yl)cyclobutyl)-3-phenylisoxazole-5-carboxamide]", "leq: activity of compound with VX-809, % of VX-809 (AUC of equivalent chloride current)": "* (* indicates activity 100-200% of VX-809 (1 uM) with compound at 10 uM and VX-809 at 1 uM)"}
